{"source": "patent US10251860B2", "about": "“Compounds for bone healing” (University of Pittsburgh—Of the Commonwealth System of …, priority 2015, dated 2019)", "key": {"[1]": {"assay": "Compound storage in 25% w/w solutions of 3 and NMP", "type": "physicochemical", "conditions": "25% w/w 3 in NMP, −20° C.", "description": "Because sulfoxide 3 is a solid, it would have to be mixed with an appropriate water-soluble cosolvent to act as a compound storage additive. NMP was chosen for exploring this potential application due to its thermal stability and low toxicity. […] The compound test set (FIG. 2) was stored in 25% w/w solutions of 3 and NMP for 6 weeks at −20° C."}, "[2]": {"system": "Brine shrimp", "assay": "Brine shrimp toxicity assay", "type": "in vivo", "description": "General procedure for brine shrimp toxicity assays. Sample preparation. Stock solutions of 3 were prepared by dissolving 3 (50.0 mg) in 5.0 HPLC grade water (5.0 mL), (solution A) and 3 (2.50 g) in HPLC grade water (10.0 mL) (solution B). Stock solutions of DMSO were prepared by diluting DMSO (45 μL) with HPLC grade water (5.0 mL) (solution C) and DMSO (2.27 mL) with HPLC grade water (10.0 mL) (solution D).\nIn each case, 5 replicates were performed. Each replicate was performed in a 2 dram vial marked at the 4 and 5 mL volume points. To each vial was added artificial sea water (3 mL) followed by the appropriate volume of stock solution. For set 1 (1.0 mg/mL), solution A (0.500 mL) or solution C (0.500 mL) was added. For set 2 (5.0 mg/mL), solution B (0.100 mL) or solution D (0.100 mL) was added to each vial. For set 3 (20.0 mg/mL), solution B (0.400 mL) or solution D (0.400 mL) was added to each vial. For set 4 (50.0 mg/mL), solution B (1.00 mL) or solution D (1.00 mL) was added to each vial. Controls containing HPLC grade water (0.100 mL, 0.400 mL, and 1.00 mL) were prepared in the same manner, and five replicates of each control were prepared.\nBrine shrimp eggs (San Francisco Bay Brand) were hatched in a commercial salt mixture (Instant Ocean). Constant aeration was provided using a pump and airstone, and illumination was maintained using a desk lamp. The shrimp were collected in a separate tank after 48 hours and used within 3-4 hours of collection.\nBrine shrimp were added to each vial using a plastic transfer pipet. After the shrimp were transferred, artificial sea-water was added until the volume reached the 5-mL mark. One drop of a yeast suspension prepared by suspending 11 mg yeast in sea-water (20 mL) was added to each vial. The shrimp were counted at t=24 hours. Another drop of freshly prepared yeast solution (6 mg in 10 mL sea water) was added, the vials were maintained under illumination, and shrimp were counted at t=48 hours."}, "[3]": {"system": "liver cell line (HepG2)", "type": "cell-based", "source_text": "(§1) The cellular toxicity of sulfoxide 3 was further determined for a breast cancer cell line (MDA-MB-231) and a liver cell line (HepG2)."}, "[4]": {"system": "breast cancer cell line (MDA-MB-231)", "type": "cell-based", "source_text": "as §1"}, "[5]": {"molecular_target": "T1, PKD1 (Homo sapiens, UniProt Q15139)", "T1 sequence (Q15139 1-912)": "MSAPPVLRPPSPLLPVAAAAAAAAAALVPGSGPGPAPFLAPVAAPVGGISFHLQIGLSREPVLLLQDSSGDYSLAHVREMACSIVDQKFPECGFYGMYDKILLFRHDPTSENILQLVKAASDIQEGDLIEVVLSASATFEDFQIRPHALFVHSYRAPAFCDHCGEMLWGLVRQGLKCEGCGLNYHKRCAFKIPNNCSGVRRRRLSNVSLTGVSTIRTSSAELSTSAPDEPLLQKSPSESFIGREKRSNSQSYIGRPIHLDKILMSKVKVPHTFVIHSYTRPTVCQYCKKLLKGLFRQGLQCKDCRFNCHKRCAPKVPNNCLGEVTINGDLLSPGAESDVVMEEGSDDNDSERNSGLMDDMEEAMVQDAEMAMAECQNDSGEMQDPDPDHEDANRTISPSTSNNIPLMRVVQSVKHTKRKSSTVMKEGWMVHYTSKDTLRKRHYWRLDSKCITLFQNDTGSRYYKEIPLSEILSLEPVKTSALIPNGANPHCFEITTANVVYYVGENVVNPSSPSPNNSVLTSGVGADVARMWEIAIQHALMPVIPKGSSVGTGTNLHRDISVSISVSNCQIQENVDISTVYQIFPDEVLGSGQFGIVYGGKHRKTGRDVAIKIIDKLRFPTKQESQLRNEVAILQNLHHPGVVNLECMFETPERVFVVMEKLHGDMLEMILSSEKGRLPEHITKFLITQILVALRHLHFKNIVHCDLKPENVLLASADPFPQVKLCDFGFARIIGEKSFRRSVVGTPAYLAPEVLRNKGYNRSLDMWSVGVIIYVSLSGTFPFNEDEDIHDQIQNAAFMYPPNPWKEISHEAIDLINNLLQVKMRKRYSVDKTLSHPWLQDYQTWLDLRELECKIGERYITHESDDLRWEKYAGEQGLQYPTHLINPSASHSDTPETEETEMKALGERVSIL", "assay": "Radiometric PKD1 inhibition assay", "type": "biochemical", "conditions": "stock solutions in 25% 3/NMP", "source_text": "Recently, a series of compounds with nanomolar to micromolar inhibitory activity against the serine/threonine protein kinase D (PKD) isoform PKD1 was disclosed (FIG. 7). Several lead structures, especially those containing a pyrimidine moiety, suffered from poor solubility not only in aqueous media but also in DMSO. To test the feasibility of using sulfoxide 3 as a cosolvent for in vitro assays, its use in the radiometric PKD1 inhibition assay was examined. Inhibitory activity at two concentrations (1 μM and 10 μM) was measured using compound stock solutions in three formulations: DMSO, NMP, and 25% 3/NMP (FIGS. 8 and 9)."}}}
{"smiles": "CC1(C[S+]([O-])CC2(C)COC2)COC1", "note": "[Compound 3, 3,3′-Sulfinylbis(methylene)bis(3-methyloxetane)]", "values": [{"measurement": "precipitation on storage", "setting": "[1]", "result": "partly precipitated from the solution"}, {"measurement": "% Mortality after 24 h", "setting": "[2]; 1 mg/mL", "result": 0, "unit": "%"}, {"measurement": "% Mortality after 48 h", "setting": "[2]; 1 mg/mL", "result": 0, "unit": "%"}, {"measurement": "% Mortality after 24 h", "setting": "[2]; 5 mg/mL", "result": 0, "unit": "%"}, {"measurement": "% Mortality after 48 h", "setting": "[2]; 5 mg/mL", "result": 0, "unit": "%"}, {"measurement": "% Mortality after 24 h", "setting": "[2]; 20 mg/mL", "result": "0-10%"}, {"measurement": "% Mortality after 48 h", "setting": "[2]; 20 mg/mL", "result": "0-10%"}, {"measurement": "% Mortality after 24 h", "setting": "[2]; 50 mg/mL", "result": 85, "unit": "%"}, {"measurement": "% Mortality after 48 h", "setting": "[2]; 50 mg/mL", "result": 100, "unit": "%"}, {"measurement": "mortality after 48 hours", "setting": "[2]; concentrations up to 20 mg/mL", "result": "< 10", "unit": "%"}, {"measurement": "GI50", "setting": "[3]", "result": "~200", "unit": "mM"}, {"measurement": "GI50", "setting": "[4]", "result": "~200", "unit": "mM"}, {"measurement": "interference with PKD1 inhibition assay", "setting": "[5]", "result": "did not interfere with the standard PKD1 inhibition assay"}]}
